{"source": "patent US20240217932A1", "about": "“PYRIDIUM ESTERS” (The Procter & Gamble Company, priority 2022, published 2024)", "key": {"staphylococcus aureus": {"tested_on": "staphylococcus aureus", "assay": "Surface Antimicrobial Kill Testing Method, activity normalized to triclosan internal standard (Gram positive)", "assay_type": "cell-based", "experimental": "(§1) Inoculum is prepared by streaking microorganism onto a Tryptic Soy Agar (TSA) plate and incubating for 24 h at 33° C. Plated bacteria is resuspended in saline until the transmittance percentage falls within the accepted range for ˜10^8 cfu/mL. For K. pneumonia (Kp) and P. aeruginosa (Pa), this is 31.00-33.00% T. For S. aureus (Sa) this is 23.00-25.00% T. A 10× concentration is made by spinning down the prepared inoculum, removing the supernatant saline from the bacterial pellet, then resuspending the pellet in 1/10th of the original volume of saline. The final inoculum is prepared with 5% of “soil” in the form of Fetal Bovine Serum (FBS).\n(§2) A 18×18 mm sterile glass coverslip is placed into an appropriate container (e.g. petri dish). 20 μL of prepared inoculum is added to the glass coverslip. Inoculum is then air-dried for 30 minutes in a 36° C. incubator. After drying, 40 μL of test sample is added on top of the dried inoculum. This is incubated at room temperature for the desired contact time. 5 mL of neutralizing media (Modified Letheen Broth+Tween+Lecithin (MLBTL)) is added to the coverslip and shaken on an orbital shaker for 5 minutes to ensure proper neutralization and extraction. Viability is then assessed of the neutralized and extracted sample by traditional/alternative microbiological techniques.\n(§3) The normalized antimicrobial activity reported in the performance examples below was generated from detection time data obtained as described in the Surface Antimicrobial Kill Test Method. To account for day-to-day variability an internal standard was tested with each series. The internal standard was a composition of 0.25 wt % Triclosan, Sigma Aldrich (St. Louis, MO, USA; CAS #3380-34-5, 97.0-103.0% (active substance, GC)), 50 wt % DMSO, and 49.75 wt % H2O, with a final solution pH of 7.7. Normalized activity is reported following the equation 1 below.\n(§4) Normalized Activity=(αΔDT-βΔDT)/(γΔDT-βΔDT) equation 1.\n(§5) where, αΔDT is the average detection time of the antimicrobial compound, and γΔDT is the average detection time of the reference triclosan internal standard, and βΔDT is the average detection time of the background unperturbed bacteria.\n(§6) Pyridinium esters of the present disclosure were tested as aqueous solutions in the Surface Antimicrobial Kill Testing Method above. To prepare test solutions pyridinium esters were first dissolved in the appropriate solvent. Second the selected surfactant is added to the mixture. After vortex (1 min, Vortex-2 Genie, vortex speed 8) mixing, the samples were then diluted with ½ portion of reverse osmosis water (RO water, Millipore Direct-Q™, pH 6). The aqueous solution was then vortexed (1 min, Vortex-2 Genie, vortex speed 8), to which the second ½ portion of water is added. The pH of the solution was then adjusted to the target pH using either 1N HCl, Glacial Acetic Acid, or 1N NaOH. The final solution was then vortexed (1 min, Vortex-2 Genic, vortex speed 8). An example batch sheet is provided below in Table 1.\n(§7) In Performance Examples 1-4 below, formulations comprising solvent, surfactant, and pyridinium esters according to the present disclosure (e.g., based on hexyl 3-(alkylpyridinium)acrylate halides), are evaluated via microbial surface kill tests according to the Surface Antimicrobial Kill Testing Method provided above. After treatment, microbial growth is referenced and reported to a triclosan sample and unaltered microbes according to the Normalization of Antimicrobial Activity provided above."}, "[1]": {"assay": "Stability of the isolated solid by 1H NMR", "assay_type": "physicochemical"}, "Gram Negative bacteria": {"tested_on": "Gram Negative bacteria", "assay": "Surface Antimicrobial Kill Testing Method, activity normalized to triclosan internal standard (Gram negative)", "assay_type": "cell-based", "conditions": "water, pH 7", "experimental": "as §1, §2, §3, §4, §5, §6, §7"}, "[2]": {"conditions": "0.5 wt % compound, 3 wt % DEGBE, 1 wt % EcoSurf EH-9, 95.5 wt % reverse osmosis water, pH 7"}}}
{"smiles": "CCCCCCOC(=O)/C=C/c1cc[n+](C)cc1.[I-]", "note": "[Synthetic Example 4, hexyl 3-(4-methylpyridinium)acrylate iodide]", "values": [{"measurement": "Gram Positive Referenced Microbial Activity", "setting": "staphylococcus aureus; [2]", "value": 1.2}, {"measurement": "Stability of the independent solid by 1H NMR", "setting": "[1]", "value": "stable for several months"}]}
{"smiles": "CCCCCCCC[n+]1cccc(/C=C/C(=O)OCCCCCC)c1.[Br-]", "note": "[Synthetic Example 7, hexyl 3-(3-octylpyridinium)acrylate bromide]", "values": [{"measurement": "Gram Positive Referenced Microbial Activity", "setting": "staphylococcus aureus; [2]", "value": ">1.42"}, {"measurement": "Stability of the independent solid by 1H NMR", "setting": "[1]", "value": "stable for several months"}]}
{"smiles": "CCCCCCCC[n+]1ccc(/C=C/C(=O)OCCCCCC)cc1.[Br-]", "note": "[Synthetic Example 8, hexyl 3-(4-octylpyridinium)acrylate bromide]", "values": [{"measurement": "Gram Positive Referenced Microbial Activity", "setting": "staphylococcus aureus; [2]", "value": ">1.33"}, {"measurement": "Stability of the independent solid by 1H NMR", "setting": "[1]", "value": "stable for several months"}]}
{"smiles": "CCCCCCOC(=O)/C=C/c1cccnc1", "note": "[Synthetic Example 1, hexyl 3-(3-pyridyl)acrylate]", "values": [{"measurement": "Gram Positive Referenced Microbial Activity", "setting": "staphylococcus aureus; [2]", "value": 0.11}]}
{"smiles": "CCCCCCOC(=O)/C=C/c1ccc[n+](C)c1.[I-]", "note": "[Synthetic Example 3, hexyl 3-(3-methylpyridinium)acrylate iodide]", "values": [{"measurement": "Gram Positive Referenced Microbial Activity", "setting": "staphylococcus aureus; [2]", "value": 0.21}, {"measurement": "Stability of the independent solid by 1H NMR", "setting": "[1]", "value": "stable for several months"}]}
{"smiles": "CCCCCCOC(=O)/C=C/c1ccc[n+](CCCCCC)c1.[Br-]", "note": "[Synthetic Example 5, hexyl 3-(3-hexylpyridinium)acrylate bromide]", "values": [{"measurement": "Gram Negative Referenced Microbial Activity", "setting": "Gram Negative bacteria; 0.25 % Synthetic Example 5, 1 wt % Crodasinic LS30, 3 wt % DEGBE", "value": 0.41}, {"measurement": "Gram Negative Referenced Microbial Activity", "setting": "Gram Negative bacteria; 0.25 % Synthetic Example 5, 1 wt % EH6, 3 wt % DEGBE", "value": ">2.58"}, {"measurement": "Gram Negative Referenced Microbial Activity", "setting": "Gram Negative bacteria; 0.25 % Synthetic Example 5, 1 wt % L24-9, 3 wt % DEGBE", "value": 1.34}, {"measurement": "Gram Negative Referenced Microbial Activity", "setting": "Gram Negative bacteria; 0.25 % Synthetic Example 5, 1 wt % Miranol Ultra, 3 wt % DEGBE", "value": 1.92}, {"measurement": "Gram Negative Referenced Microbial Activity", "setting": "Gram Negative bacteria; 0.25 % Synthetic Example 5, 1 wt % Plantaren 2000, 3 wt % DEGBE", "value": ">2.58"}, {"measurement": "Gram Negative Referenced Microbial Activity", "setting": "Gram Negative bacteria; 0.25 % Synthetic Example 5, 1 wt % SLS, 3 wt % DEGBE", "value": 0.08}, {"measurement": "Gram Negative Referenced Microbial Activity", "setting": "Gram Negative bacteria; 0.25 % Synthetic Example 5, 1 wt % Tween80, 3 wt % DEGBE", "value": 1.37}, {"measurement": "Gram Positive Referenced Microbial Activity", "setting": "staphylococcus aureus; 0.063 wt % Synthetic Example 5, 1 wt % EcoSurf EH9, 3 wt % DEGBE, water, pH 7", "value": 0.55}, {"measurement": "Gram Positive Referenced Microbial Activity", "setting": "staphylococcus aureus; 0.125 wt % Synthetic Example 5, 1 wt % EcoSurf EH9, 3 wt % DEGBE, water, pH 7", "value": 0.93}, {"measurement": "Gram Positive Referenced Microbial Activity", "setting": "staphylococcus aureus; 0.25 % Synthetic Example 5, 1 wt % Crodasinic LS30, 3 wt % DEGBE, water, pH 7", "value": 0.42}, {"measurement": "Gram Positive Referenced Microbial Activity", "setting": "staphylococcus aureus; 0.25 % Synthetic Example 5, 1 wt % EH6, 3 wt % DEGBE, water, pH 7", "value": 1.09}, {"measurement": "Gram Positive Referenced Microbial Activity", "setting": "staphylococcus aureus; 0.25 % Synthetic Example 5, 1 wt % L24-9, 3 wt % DEGBE, water, pH 7", "value": 0.54}, {"measurement": "Gram Positive Referenced Microbial Activity", "setting": "staphylococcus aureus; 0.25 % Synthetic Example 5, 1 wt % Miranol Ultra, 3 wt % DEGBE, water, pH 7", "value": 0.78}, {"measurement": "Gram Positive Referenced Microbial Activity", "setting": "staphylococcus aureus; 0.25 % Synthetic Example 5, 1 wt % Plantaren 2000, 3 wt % DEGBE, water, pH 7", "value": ">2.33"}, {"measurement": "Gram Positive Referenced Microbial Activity", "setting": "staphylococcus aureus; 0.25 % Synthetic Example 5, 1 wt % SLS, 3 wt % DEGBE, water, pH 7", "value": 0.20}, {"measurement": "Gram Positive Referenced Microbial Activity", "setting": "staphylococcus aureus; 0.25 % Synthetic Example 5, 1 wt % Tween80, 3 wt % DEGBE, water, pH 7", "value": 0.57}, {"measurement": "Gram Positive Referenced Microbial Activity", "setting": "staphylococcus aureus; 0.25 wt % Synthetic Example 5, 1 wt % EcoSurf EH9, 3 wt % DEGBE, water, pH 7", "value": 2.02}, {"measurement": "Gram Positive Referenced Microbial Activity", "setting": "staphylococcus aureus; 0.5 wt % Synthetic Example 5, 1 wt % EcoSurf EH9, 3 wt % DEGBE, water, pH 7 (concentration series)", "value": ">2.87"}, {"measurement": "Gram Positive Referenced Microbial Activity", "setting": "staphylococcus aureus; [2]", "value": ">1.42"}, {"measurement": "pH range of formulations in which antimicrobial efficacy is maintained", "setting": "staphylococcus aureus; formulations of table 16", "value": "3-9"}, {"measurement": "Concentration down to which antimicrobial efficacy against staphylococcus aureus is maintained", "setting": "staphylococcus aureus; formulations of table 17", "value": "≥ 0.063", "unit": "wt %"}, {"measurement": "Gram Positive Referenced Microbial Activity", "setting": "staphylococcus aureus; pH 3, 0.5 wt % compound, 1 wt % EcoSurf EH9, 3 wt % DEGBE, 95.5 wt % water", "value": ">2.58"}, {"measurement": "Gram Positive Referenced Microbial Activity", "setting": "staphylococcus aureus; pH 7, 0.5 wt % compound, 1 wt % EcoSurf EH9, 3 wt % DEGBE, 95.5 wt % water (pH series)", "value": ">2.8"}, {"measurement": "Gram Positive Referenced Microbial Activity", "setting": "staphylococcus aureus; pH 9, 0.5 wt % compound, 1 wt % EcoSurf EH9, 3 wt % DEGBE, 95.5 wt % water", "value": 2.53}, {"measurement": "Stability of the independent solid by 1H NMR", "setting": "[1]", "value": "stable for several months"}]}
{"smiles": "CCCCCCOC(=O)/C=C/c1cc[n+](CCCCCC)cc1.[Br-]", "note": "[Synthetic Example 6, hexyl 3-(4-hexylpyridinium)acrylate bromide]", "values": [{"measurement": "Gram Positive Referenced Microbial Activity", "setting": "staphylococcus aureus; [2]", "value": ">1.39"}, {"measurement": "Stability of the independent solid by 1H NMR", "setting": "[1]", "value": "stable for several months"}]}
